Reference: US8952024B2, “Herbicidal pyrimidone derivatives” (E I du Pont de Nemours and Company, priority 2009, dated 2015)

Assays:
Type in all cases: in vivo
[1] = test system: giant foxtail (Setaria faberii); assay: Test A pre-/postemergence plant response
Excerpt: (§1) Seeds of barnyardgrass (Echinochloa crus-galli), large crabgrass (Digitaria sanguinalis), giant foxtail (Setaria faberii), morningglory (Ipomoea spp.), pigweed (Amaranthus retroflexus), velvetleaf (Abutilon theophrasti), wheat (Triticum aestivum) and corn (Zea mays) were planted into a blend of loam soil and sand and treated preemergence with a directed soil spray using test chemicals formulated in a non-phytotoxic solvent mixture which included a surfactant. At the same time these species were also treated with postemergence applications of test compounds formulated in the same manner.
(§2) Plants ranged in height from two to ten cm and were in the one- to two-leaf stage for the postemergence treatment. Treated plants and untreated controls were maintained in a greenhouse for approximately ten days, after which time all treated plants were compared to untreated controls and visually evaluated for injury. Plant response ratings, summarized in Table A, are based on a 0 to 100 scale where 0 is no effect and 100 is complete control. A dash (-) response means no test result.

[2] = test system: large crabgrass (Digitaria sanguinalis); assay: Test A pre-/postemergence plant response
Excerpt: as §1, §2

[3] = test system: morningglory (Ipomoea spp.); assay: Test A pre-/postemergence plant response
Excerpt: as §1, §2

[4] = test system: velvetleaf (Abutilon theophrasti); assay: Test A pre-/postemergence plant response
Excerpt: as §1, §2

[5] = test system: pigweed (Amaranthus retroflexus); assay: Test A pre-/postemergence plant response
Excerpt: as §1, §2

[6] = test system: corn (Zea mays); assay: Test A pre-/postemergence plant response
Excerpt: as §1, §2

[7] = test system: wheat (Triticum aestivum); assay: Test A pre-/postemergence plant response
Excerpt: as §1, §2

[8] = test system: barnyardgrass (Echinochloa crus-galli); assay: Test A pre-/postemergence plant response
Excerpt: as §1, §2

[9] = test system: ducksalad (Heteranthera limosa); assay: Test B flooded paddy test; details: for Plant response rating, Flood, Ducksalad: 250 g ai/ha, flooded paddy test, visual rating on 0 to 100 scale (0 no effect, 100 complete control) after 13 to 15 days; for Plant response rating, Ducksalad: Flood (flooded paddy test), 13 to 15 days
Summary of the method: (§3)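 Visual scores run from 0 (no effect) to 100 (complete control), assigned by comparison with controls 13 to 15 days after treatment. Test compounds went straight into water standing 3 cm above the soil, around plants at the 2-leaf stage kept in a greenhouse.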

[10] = test system: rice (Oryza sativa); assay: Test B flooded paddy test; details: for Plant response rating, Flood, Rice: 250 g ai/ha, flooded paddy test, visual rating on 0 to 100 scale (0 no effect, 100 complete control) after 13 to 15 days; for Plant response rating, Rice: Flood (flooded paddy test), 13 to 15 days
Summary of the method: as §3

[11] = test system: barnyardgrass (Echinochloa crus-galli); assay: Test B flooded paddy test; details: for Plant response rating, Flood, Barnyardgrass: 250 g ai/ha, flooded paddy test, visual rating on 0 to 100 scale (0 no effect, 100 complete control) after 13 to 15 days; for Plant response rating, Barnyardgrass: Flood (flooded paddy test), 13 to 15 days
Summary of the method: as §3

[12] = test system: umbrella sedge (Cyperus difformis); assay: Test B flooded paddy test; details: for Plant response rating, Flood, Sedge, Umbrella: 250 g ai/ha, flooded paddy test, visual rating on 0 to 100 scale (0 no effect, 100 complete control) after 13 to 15 days; for Plant response rating, Sedge, Umbrella: Flood (flooded paddy test), 13 to 15 days
Summary of the method: as §3

[13] = Postemergence, 125 g ai/ha, 0 to 100 scale where 0 is no effect and 100 is complete control
[14] = Postemergence, 500 g ai/ha, 0 to 100 scale, 0 = no effect, 100 = complete control, approx. ten days
[15] = Preemergence, 125 g ai/ha, 0 to 100 scale, 0 = no effect, 100 = complete control
[16] = Preemergence, 500 g ai/ha, visual injury, 0 to 100 scale (0 no effect, 100 complete control), approx. ten days
[17] = 62 g ai/ha, scale of 0 to 100 where 0 is no effect and 100 is complete control
[18] = 125 g ai/ha, scale 0 to 100, 0 is no effect, 100 is complete control
[19] = Flood, 31 g ai/ha, scale 0 to 100 (0 no effect, 100 complete control)

O=C1CCCC(O)=C1C(=O)c1cnc(C2CCC2)n(-c2ccccc2)c1=O [Compound 114]
10: Plant response rating, Corn [6, 13]
40: Plant response rating, Foxtail, Giant [1, 15] | Plant response rating, Flood, Barnyardgrass [11] | Plant response rating, Flood, Sedge, Umbrella [12]
50: Plant response rating, Corn [6, 14]
90: Plant response rating, Crabgrass, Large [2, 14] | Plant response rating, Crabgrass, Large [2, 15] | Plant response rating, Morningglory [3, 13] | Plant response rating, Barnyardgrass [8, 14] | Plant response rating, Barnyardgrass [8, 16]
60: Plant response rating, Foxtail, Giant [1, 13]
0: Plant response rating, Morningglory [3, 15] | Plant response rating, Corn [6, 15] | Plant response rating, Corn [6, 16] | Plant response rating, Wheat [7, 13] | Plant response rating, Wheat [7, 14] | Plant response rating, Wheat [7, 15] | Plant response rating, Rice [10, 17]
100: Plant response rating, Crabgrass, Large [2, 16] | Plant response rating, Morningglory [3, 14] | Plant response rating, Velvetleaf [4, 13] | Plant response rating, Velvetleaf [4, 14] | Plant response rating, Velvetleaf [4, 16] | Plant response rating, Pigweed [5, 13] | Plant response rating, Pigweed [5, 14] | Plant response rating, Pigweed [5, 15] | Plant response rating, Pigweed [5, 16]
20: Plant response rating, Wheat [7, 16] | Plant response rating, Flood, Rice [10] | Plant response rating, Barnyardgrass [11, 17]
65: Plant response rating, Ducksalad [9, 17]
80: Plant response rating, Foxtail, Giant [1, 14] | Plant response rating, Foxtail, Giant [1, 16] | Plant response rating, Crabgrass, Large [2, 13] | Plant response rating, Morningglory [3, 16]
30: Plant response rating, Barnyardgrass [8, 15] | Plant response rating, Sedge, Umbrella [12, 17]
75: Plant response rating, Flood, Ducksalad [9]
70: Plant response rating, Velvetleaf [4, 15] | Plant response rating, Barnyardgrass [8, 13]

CCn1c(-c2cccc(F)c2)ncc(C(=O)C2=C(O)CCCC2=O)c1=O [Compound 124]
15: Plant response rating, Rice [10, 17]
60: Plant response rating, Crabgrass, Large [2, 15] | Plant response rating, Morningglory [3, 15] | Plant response rating, Barnyardgrass [8, 16]
20: Plant response rating, Corn [6, 14] | Plant response rating, Barnyardgrass [8, 15] | Plant response rating, Flood, Rice [10] | Plant response rating, Rice [10, 18] | Plant response rating, Sedge, Umbrella [12, 18]
70: Plant response rating, Foxtail, Giant [1, 14] | Plant response rating, Crabgrass, Large [2, 13] | Plant response rating, Velvetleaf [4, 15]
40: Plant response rating, Foxtail, Giant [1, 16] | Plant response rating, Barnyardgrass [8, 13] | Plant response rating, Flood, Sedge, Umbrella [12]
50: Plant response rating, Foxtail, Giant [1, 13]
0: Plant response rating, Corn [6, 13] | Plant response rating, Corn [6, 15] | Plant response rating, Corn [6, 16] | Plant response rating, Wheat [7, 13] | Plant response rating, Wheat [7, 14] | Plant response rating, Wheat [7, 15] | Plant response rating, Wheat [7, 16] | Plant response rating, Flood, Ducksalad [9] | Plant response rating, Ducksalad [9, 17] | Plant response rating, Ducksalad [9, 18] | Ducksalad plant response rating [9, 19] | Rice plant response rating [10, 19] | Plant response rating, Barnyardgrass [11, 17] | Plant response rating, Barnyardgrass [11, 18] | Barnyardgrass plant response rating [11, 19] | Plant response rating, Sedge, Umbrella [12, 17] | Sedge, Umbrella plant response rating [12, 19]
100: Plant response rating, Morningglory [3, 13] | Plant response rating, Morningglory [3, 14] | Plant response rating, Velvetleaf [4, 13] | Plant response rating, Velvetleaf [4, 14] | Plant response rating, Velvetleaf [4, 16] | Plant response rating, Pigweed [5, 14] | Plant response rating, Pigweed [5, 15] | Plant response rating, Pigweed [5, 16]
80: Plant response rating, Morningglory [3, 16]
90: Plant response rating, Crabgrass, Large [2, 14] | Plant response rating, Crabgrass, Large [2, 16] | Plant response rating, Pigweed [5, 13] | Plant response rating, Barnyardgrass [8, 14]
30: Plant response rating, Flood, Barnyardgrass [11]
10: Plant response rating, Foxtail, Giant [1, 15]
